Assay results from patent US11345702B1 (Myoforte Therapeutics, Inc., priority 2020, dated 2022).
pIC50: −log10 of the molar value.

Key:
[1] = tested on: A549 cells; assay: A549 cell-based assay (PGE2 level)
Experimental: 30,000 A549 cells per well were seeded into a tissue culture treated flat bottom 96 well plate, and incubated for 24 hours in a 37° C., […] incubator. After 24 hours of incubation, complete media were replaced with 100 μL of low serum (F12K+1% FBS) media and the plate was incubated for 24 hours in a 37° C., 5% CO2 incubator. After 24 hours of incubation, low serum media was replaced with 80 μL of complete medium (F12K+10% FBS) and 10 μL (10× concentration) of compounds were added and incubated at 37° C. for 30 minutes followed by stimulation of 10 μL (10× concentration) of IL-1b (Final concentration 0.25 ng/mL) overnight in a 37° C., […] incubator. After 24 hours of incubation, the supernatant was collected and the PGE2 level was detected by using Cisbio HTRF kit (Catalog #62P2APEH). Briefly, 5 μL of sample (100-Fold diluted) was dispensed into each sample well. 5 μL of each Prostaglandin E2 standard (Std 0-Std 7) was dispensed into each standard well. 2.5 μL of Prostaglandin E2-d2 working solution was added to all wells except negative controls and 2.5 μL of Anti-Prostaglandin E2-Eu3+ Cryptate working solution was added to all wells. […] After 5 hours of incubation, the plate sealer was removed and the plate was read on a HTRF® compatible reader. Delta F and PGE2 level were calculated as per kit instructions. % Fold change was calculated with respect to DMSO control wells.

[2] = biological target: 15-PGDH/HPGD (Homo sapiens (Human), UniProt P15428); assay: hPGDH inhibitor screening biochemical assay; conditions: read-out: hPGDH: Average IC50
Outline: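 Ten-point dose-response inhibition of 15-PGDH measured by fluorescence (340/485 nm) after 10 min at room temperature with PGE2 (15 μM) and NAD+ (0.25 mM), following 10 min enzyme (10 nM)–compound pre-incubation at 37 °C. Buffer: 50 mM Tris-HCl pH 7.5, 0.01% Tween 20. Percent inhibition relative to 1% DMSO; four-parameter IC50.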

15-PGDH/HPGD, sequence (P15428 whole entry): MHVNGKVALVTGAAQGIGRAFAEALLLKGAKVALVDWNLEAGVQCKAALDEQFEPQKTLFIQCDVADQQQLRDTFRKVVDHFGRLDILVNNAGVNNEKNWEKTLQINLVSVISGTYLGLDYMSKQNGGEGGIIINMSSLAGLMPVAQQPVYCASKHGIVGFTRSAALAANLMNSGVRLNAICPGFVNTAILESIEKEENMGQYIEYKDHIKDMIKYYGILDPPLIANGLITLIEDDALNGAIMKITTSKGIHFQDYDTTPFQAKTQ

pIC50 [2]: > 7.00
SMILES: N#Cc1ccc(-n2ccc3cc(C(=O)N4CCC(F)CC4)cnc32)cc1 [MF-DH-342]
activity in the A549 cell-based assay (FIG. 1) [1]: displayed activity
